Experimental data taken from PubChem BioAssay (NCI).
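These data come from cells grown in 96-well plates and exposed to compound for 48 hours at five concentrations. Abbreviation: GI50, concentration required for 50% inhibition of growth. At the TGI there is no net growth.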

What follows are compounds tested on CAKI-1 renal (assay: growth of human tumour cells (NCI), 48 h).
With `CCCCCCCCCc1cc(=O)c2c(O)cccc2o1` the TGI was > 100 µM. Compound `COc1cc2cn3c4ccc(O)cc4[nH]c(=O)c3c2cc1OC` has a GI50 of 0.0158 µM and a TGI of 1.3 µM. In the case of `O=C(C[n+]1ccccc1)NNC(=O)/C(=C/c1ccc2c(c1)OCO2)NC(=O)c1ccccc1`, the TGI is reported as > 100 µM. `COc1ccc(/C=c2/sc3n(c2=O)C(c2ccc(OC)c(OC)c2)C2=C(N=3)c3cc(F)ccc3OC2)cc1` (stereo not given) gave a GI50 of 10.1 µM and a TGI of 41.7 µM. `Clc1ccc(-c2c(C3=NCCN3)nnn2-c2ccc(Cl)cc2)cc1` was tested, and the TGI was > 100 µM. `CC(C)(C)N1CC2(CCCCC2)C1=O` was tested, and the TGI was > 100 µM. In the case of `Cc1cc(NC(=O)c2ccc(C)c(Nc3nccc(-c4cccnc4)n3)c2)cc(-n2cnc(C)c2)c1`, the GI50 is reported as 2.18 µM and the TGI is reported as 7.15 µM. In the case of `O=C(CCCN1CC=C(n2c(=O)[nH]c3ccccc32)CC1)c1ccc(F)cc1`, the GI50 is reported as 21.7 µM and the TGI is reported as 72.5 µM. Work on `CC(=O)c1c(CBr)n([O-])c2ccccc2[n+]1=O` yielded a GI50 of 12.9 µM and a TGI of 25.8 µM. Work on `COc1ccc(C2C(C#N)=C(N)OC3=C2COc2ccc(F)cc23)cc1OC` (stereo not given) yielded a GI50 of 16.5 µM and a TGI of 47.3 µM. `CCCS(=O)(=O)Nc1ccc(Nc2c3ccccc3nc3ccccc23)c(OC)c1` showed a TGI of 13.7 µM. Work on `CCN(CC)CC(C)(C)C(=O)/C=C/c1ccc(Cl)c(Cl)c1` yielded a GI50 of 1.35 µM and a TGI of 2.74 µM.

These compounds were tested on HCT-116 colon (assay: growth of human tumour cells (NCI), 48 h).
`CCCCCCCCCc1cc(=O)c2c(O)cccc2o1` was tested, and the TGI was > 100 µM. For `COc1cc2cn3c4ccc(O)cc4[nH]c(=O)c3c2cc1OC`, the GI50 was < 0.01 µM and the TGI was 1.66 µM. `O=C(C[n+]1ccccc1)NNC(=O)/C(=C/c1ccc2c(c1)OCO2)NC(=O)c1ccccc1` was tested, and the TGI was > 100 µM. For `COc1ccc(/C=c2/sc3n(c2=O)C(c2ccc(OC)c(OC)c2)C2=C(N=3)c3cc(F)ccc3OC2)cc1` (stereo not given), the GI50 was 17.4 µM and the TGI was > 100 µM. For `Clc1ccc(-c2c(C3=NCCN3)nnn2-c2ccc(Cl)cc2)cc1`, the TGI was 32.3 µM. In the case of `CC(C)(C)N1CC2(CCCCC2)C1=O`, the TGI is reported as > 100 µM. Work on `Cc1cc(NC(=O)c2ccc(C)c(Nc3nccc(-c4cccnc4)n3)c2)cc(-n2cnc(C)c2)c1` yielded a GI50 of 0.932 µM and a TGI of 3.28 µM. In the case of `O=C(CCCN1CC=C(n2c(=O)[nH]c3ccccc32)CC1)c1ccc(F)cc1`, the GI50 is reported as 28.5 µM and the TGI is reported as > 100 µM. `CC(=O)c1c(CBr)n([O-])c2ccccc2[n+]1=O` gave a GI50 of 1.36 µM and a TGI of 2.89 µM. `COc1ccc(C2C(C#N)=C(N)OC3=C2COc2ccc(F)cc23)cc1OC` (stereo not given) showed a GI50 of 12 µM and a TGI of 36.1 µM. In the case of `CCCS(=O)(=O)Nc1ccc(Nc2c3ccccc3nc3ccccc23)c(OC)c1`, the TGI is reported as 13.2 µM. `CCN(CC)CC(C)(C)C(=O)/C=C/c1ccc(Cl)c(Cl)c1` gave a GI50 of 1.79 µM and a TGI of 3.2 µM.

What follows are compounds tested on HCT-15 colon (assay: growth of human tumour cells (NCI), 48 h).
With `CCCCCCCCCc1cc(=O)c2c(O)cccc2o1` the TGI was > 100 µM. Compound `COc1cc2cn3c4ccc(O)cc4[nH]c(=O)c3c2cc1OC` has a GI50 of 0.0207 µM and a TGI of 1.35 µM. For `O=C(C[n+]1ccccc1)NNC(=O)/C(=C/c1ccc2c(c1)OCO2)NC(=O)c1ccccc1`, the TGI was > 63.5 µM. With `COc1ccc(/C=c2/sc3n(c2=O)C(c2ccc(OC)c(OC)c2)C2=C(N=3)c3cc(F)ccc3OC2)cc1` (stereo not given) the GI50 was 22.2 µM and the TGI was > 83 µM. With `Clc1ccc(-c2c(C3=NCCN3)nnn2-c2ccc(Cl)cc2)cc1` the TGI was > 100 µM. With `CC(C)(C)N1CC2(CCCCC2)C1=O` the TGI was > 100 µM. For `Cc1cc(NC(=O)c2ccc(C)c(Nc3nccc(-c4cccnc4)n3)c2)cc(-n2cnc(C)c2)c1`, the GI50 was 7.49 µM and the TGI was > 27 µM. In the case of `O=C(CCCN1CC=C(n2c(=O)[nH]c3ccccc32)CC1)c1ccc(F)cc1`, the GI50 is reported as 37.4 µM and the TGI is reported as > 100 µM. With `CC(=O)c1c(CBr)n([O-])c2ccccc2[n+]1=O` the GI50 was 13.6 µM and the TGI was 27.7 µM. `COc1ccc(C2C(C#N)=C(N)OC3=C2COc2ccc(F)cc23)cc1OC` (stereo not given) was tested, and the GI50 was 18.8 µM and the TGI was 76.5 µM. Compound `CCCS(=O)(=O)Nc1ccc(Nc2c3ccccc3nc3ccccc23)c(OC)c1` has a TGI of 6.41 µM. With `CCN(CC)CC(C)(C)C(=O)/C=C/c1ccc(Cl)c(Cl)c1` the GI50 was 1.42 µM and the TGI was 2.92 µM.

Each compound was assayed on HL-60(TB) leukemia (assay: growth of human tumour cells (NCI), 48 h).
With `CCCCCCCCCc1cc(=O)c2c(O)cccc2o1` the TGI was 93.9 µM. `COc1cc2cn3c4ccc(O)cc4[nH]c(=O)c3c2cc1OC` gave a GI50 of 0.0264 µM and a TGI of 2.3 µM. Work on `O=C(C[n+]1ccccc1)NNC(=O)/C(=C/c1ccc2c(c1)OCO2)NC(=O)c1ccccc1` yielded a TGI of 64.8 µM. In the case of `COc1ccc(/C=c2/sc3n(c2=O)C(c2ccc(OC)c(OC)c2)C2=C(N=3)c3cc(F)ccc3OC2)cc1` (stereo not given), the GI50 is reported as 33.1 µM and the TGI is reported as > 94.6 µM. With `Clc1ccc(-c2c(C3=NCCN3)nnn2-c2ccc(Cl)cc2)cc1` the TGI was 39.1 µM. In the case of `CC(C)(C)N1CC2(CCCCC2)C1=O`, the TGI is reported as > 100 µM. For `Cc1cc(NC(=O)c2ccc(C)c(Nc3nccc(-c4cccnc4)n3)c2)cc(-n2cnc(C)c2)c1`, the GI50 was 14.5 µM and the TGI was > 50 µM. Compound `O=C(CCCN1CC=C(n2c(=O)[nH]c3ccccc32)CC1)c1ccc(F)cc1` has a GI50 of 24.3 µM and a TGI of 67.4 µM. Work on `CC(=O)c1c(CBr)n([O-])c2ccccc2[n+]1=O` yielded a GI50 of 5.49 µM and a TGI of 22.6 µM. With `COc1ccc(C2C(C#N)=C(N)OC3=C2COc2ccc(F)cc23)cc1OC` (stereo not given) the GI50 was 34.2 µM and the TGI was 70.8 µM. Compound `CCCS(=O)(=O)Nc1ccc(Nc2c3ccccc3nc3ccccc23)c(OC)c1` has a TGI of 0.45 µM. With `CCN(CC)CC(C)(C)C(=O)/C=C/c1ccc(Cl)c(Cl)c1` the GI50 was 1.07 µM and the TGI was 6.59 µM.

Each compound was assayed on HOP-92 NSCLC (assay: growth of human tumour cells (NCI), 48 h).
In the case of `CCCCCCCCCc1cc(=O)c2c(O)cccc2o1`, the TGI is reported as > 100 µM. `COc1cc2cn3c4ccc(O)cc4[nH]c(=O)c3c2cc1OC` gave a GI50 of 2.14 µM and a TGI of 7.72 µM. `O=C(C[n+]1ccccc1)NNC(=O)/C(=C/c1ccc2c(c1)OCO2)NC(=O)c1ccccc1` was tested, and the TGI was > 100 µM. With `COc1ccc(/C=c2/sc3n(c2=O)C(c2ccc(OC)c(OC)c2)C2=C(N=3)c3cc(F)ccc3OC2)cc1` (stereo not given) the GI50 was 14.3 µM and the TGI was > 65 µM. Work on `Clc1ccc(-c2c(C3=NCCN3)nnn2-c2ccc(Cl)cc2)cc1` yielded a TGI of 50.2 µM. For `CC(C)(C)N1CC2(CCCCC2)C1=O`, the TGI was > 100 µM. For `Cc1cc(NC(=O)c2ccc(C)c(Nc3nccc(-c4cccnc4)n3)c2)cc(-n2cnc(C)c2)c1`, the GI50 was 0.716 µM and the TGI was 2.78 µM. `O=C(CCCN1CC=C(n2c(=O)[nH]c3ccccc32)CC1)c1ccc(F)cc1` was tested, and the GI50 was 45.3 µM and the TGI was > 100 µM. With `CC(=O)c1c(CBr)n([O-])c2ccccc2[n+]1=O` the GI50 was 7.36 µM and the TGI was 24 µM. `COc1ccc(C2C(C#N)=C(N)OC3=C2COc2ccc(F)cc23)cc1OC` (stereo not given) was tested, and the GI50 was 47.6 µM and the TGI was > 100 µM. `CCCS(=O)(=O)Nc1ccc(Nc2c3ccccc3nc3ccccc23)c(OC)c1` was tested, and the TGI was 17.5 µM. Compound `CCN(CC)CC(C)(C)C(=O)/C=C/c1ccc(Cl)c(Cl)c1` has a GI50 of 0.418 µM and a TGI of 1.85 µM.
